Columns and labels:
intestinal bacteria [1] = assay: Bacterial culture test, 5% diluted solution of stool from one subject; type: cell-based; conditions: 10 ml 5% stool suspension + 15 ml test solution
Experimental: With respect to Example 2 in which xylitol was used as the first cleansing ingredient, in order to test the antibacterial effect of the solution against intestinal bacteria, a 5% diluted solution of stool was prepared from a stool sample obtained from one subject. […] Then, each of these mixed solutions was split in half and submitted to two different testing institutions, the Seoul Medical Science Institute (SCL), which is a CAP accredited and KSLM/Laboratory Medicine Foundation accredited institution, and the Green Cross Laboratories (GC Labs), which is a KSLM accredited institution, for bacterial culture tests.

[2] = 15 g intravenously over 30 minutes twice weekly for four weeks; phase I study 2013; cited from earlier work
intestinal bacteria [3] = assay: Bacterial culture test of mixed stool/test solutions after gas measurement; type: cell-based; conditions: average; mixed solutions cultured for 48 hours at SCL
Experimental: Following the measurement of gas concentration as described above, the mixed solutions in the containers were submitted to a laboratory at the Seoul Medical Science Institute (SCL), a CAP accredited and Korean Society for Laboratory Medicine (KSLM)/Laboratory Medicine Foundation accredited institution, where they were cultured for 48 hours and measured for the resulting colony counts.

[4] = scale proposed by Nunes et al. 2008; cited from earlier work

In the case of `OC[C@@H](O)[C@H](O)[C@@H](O)CO` [Reference Example 6, xylitol], the “Colony count (GC Labs)” value (intestinal bacteria [1]; Green Cross Laboratories) is reported as 10.2 × 10^6 CFU/mL and the “Colony count (SCL)” value (intestinal bacteria [1]; Seoul Medical Science Institute) is reported as 60 × 10^6 CFU/mL.
In the case of `O=C1O[C@H]([C@@H](O)CO)C(O)=C1O` [ascorbic acid], the “blood ascorbic acid level” value [2] is given as “at least 350 mg/dL”.
For `OC[C@@H](O)[C@@H](O)[C@H](O)[C@@H](O)CO` [compound 4, sorbitol], the Colony count (intestinal bacteria [3]) was 4.5 × 10^8 CFU/mL.
For `OC[C@@H](O)[C@@H](O)[C@H](O)[C@H](O)CO` [compound 5, mannitol], the Colony count (intestinal bacteria [3]) was 4.0 × 10^8 CFU/mL.
In the case of `OC[C@@H](O)[C@@H](O)[C@H](O)[C@H](O)CO` [mannitol], the “rate of adequate bowel cleansing” value [4] is given as 75%.

— patent US20150342937A1, “BOWEL CLEANSING COMPOSITION” (priority 2013, published 2015)
